Entries after “also recorded” stand apart in the source; their conditions may differ.
Key:
SYK = target: T1, SYK (Homo sapiens, UniProt P43405); assay: SYK inhibition IC50 (Reaction Biology Corp.); type: biochemical; conditions: 10-point curve; read-out: SYK IC50
T1 construct: purchased Reaction Biology Corp., Malvern, Pa; (contract assay service)
Description: (§1) The inhibitory activity of a compound of the invention against PI3K and/or BRD4 and/or SYK and/or CDK4/6 can be readily determined using methods known to the skilled artisan, or by commercial vendors offering such services. […] In vivo, PI3K inhibition can be determined from target tissue biopsies by standard tissue processing to disrupt cells and then performing Western Blot analysis to determine the presence or absence of pAKT (substrate of PI3K) relative to a control sample. The activity of a compound of the invention as an inhibitor of a bromodomain-containing protein, such as a BET protein, such as BRD2, BRD3, BRD4, and/or BRDT, or an isoform or mutant thereof, may be determined in vitro, in vivo, or in a cell line. In vitro assays include assays that determine inhibition of bromodomain-containing proteins. Alternatively, inhibitor binding may be determined by running a competition experiment where a provided compound is incubated with a bromodomain-containing protein, such as a BET protein bound to known ligands, labeled or unlabeled. For example, bromodomain inhibition can be determined in vitro using Alpha Screen Technology (http://www.reactionbiologv.com/webapps/site/NewsPDFs/Bromodomain%20Assay %20Platform %20for %20Drug %20Screening %20and %20Discovery.pdf). In vivo bromodomain inhibition can be determined indirectly by evaluating the amount of protein present of proteins whose genes' transcription is influenced or controlled by the bromodomain protein, for example, the MYCN protein transcription is controlled by BRD4 (J. E. Delmore et al., Cell 2011, 146, 904-917; A. Puissant, Cancer Discov. 2013, 3, 308-323). Bromodomain inhibition may also be predicted by in silico modeling as described below in the Examples. Additionally, the company Promega offers a SYK luminescent assay to determine a compound's ability to inhibit the SYK protein (https://www.promega.com/-/media/files/resources/protocols/kinase-enzyme-appnotes/syk-kinase-assay-protocol.pdf?la=en).
Compounds of the invention were characterized for their ability to inhibit target proteins using third party vendors offering such services. PI3K alpha, gamma, and delta inhibition activity was determined by Thermo Fisher Scientific-Biosciences Life Sciences Solutions, Madison, Wis. The bromodomain protein inhibition (binding domain 1 and 2 of BRD4) as well as SYK inhibition was determined at Reaction Biology Corp., Malvern, Pa. Additional information on each of the assays performed and services provided is available at each company's website on the internet (https://www.thermofisher.com/us/en/home/life-science.html and http://www.reactionbiology.com/webapps/site, respectively). The IC50 data (shown below in Table 5) was calculated from a 10-point curve and is expressed in nanomolar concentration (nM) rounded off to the nearest whole number. Where multiple values were obtained the range from lowest to highest values is presented. NI=no inhibition detected up to 50 uM or IC50 not reached at 50 uM.

CT26 tumor cells = assay: In vitro viability of CT26 tumor cells; type: cell-based; conditions: for % Cell Viability: CT26 tumor cells in vitro
Description: We investigated the effect of Compound 3 on immune cell in vitro and on tumor growth in in vivo in immunocompetent syngeneic tumor models and the effects on the macrophage and T cell immune compartment in vivo by this compound. […] In order to distinguish whether Compound 3 blocks tumor growth due to its effect on immune cell compartment and not on tumor compartment, we tested the effect of this chemotype on CT26 tumor growth in immunodeficient NSG mice vs immunocompetent Balb/c mice. […] Compound 3 has combinatorial immune-oncologic activity in vivo to stimulate anti-cancer innate and adaptive immunity in well-defined accepted immune competent murine models for cancer immunotherapy.
Compound 3 has no effect on the in vitro viability of CT26 tumor cells.

BRD4-1 = target: T2, BRD4-1 (Homo sapiens, UniProt O60885); assay: Bromodomain protein inhibition IC50, binding domain 1 of BRD4 (Reaction Biology Corp.); conditions: 10-point curve
T2 construct: purchased Reaction Biology Corp., Malvern, Pa; (contract assay service)
Description: as §1
(§2) Compounds of the invention were characterized for their ability to inhibit target proteins using third party vendors offering such services. PI3K alpha, gamma, and delta inhibition activity was determined by Thermo Fisher Scientific-Biosciences Life Sciences Solutions, Madison, Wis. The bromodomain protein inhibition (binding domain 1 and 2 of BRD4) as well as SYK inhibition was determined at Reaction Biology Corp., Malvern, Pa. […] The IC50 data (shown below in Table 5) was calculated from a 10-point curve and is expressed in nanomolar concentration (nM) rounded off to the nearest whole number. […]

BRD4-2 = target: T3, BRD4-2 (Homo sapiens, UniProt O60885); assay: Bromodomain protein inhibition IC50, binding domain 2 of BRD4 (Reaction Biology Corp.); conditions: 10-point curve
T3 construct: purchased Reaction Biology Corp., Malvern, Pa; (contract assay service)
Description: as §1, §2

[1] = test system: tumor associated macrophages (TAMs) from LLC tumors; assay: RT-PCR gene expression in tumor associated macrophages sorted from LLC tumors; type: in vivo, mice
Description: RT-PCR analysis of cDNAs generated from mRNAs reflecting tumor associated macrophages (TAMs) isolated from LLC tumors grown in WT animals and treated with Compound 3. ***p<0.001**p<0.01 and *p<0.05, t test. […] Expression of gene of interest is normalized to GAPDH. […] Statistical significance is accessed by t test. For example, Compound 3 augmented IL1 gene expression in TAMs 8-fold and suppressed Arginase (Arg) 98% in TAMs isolated from LLC tumors in vivo.

[2] = LLC tumors in WT animals, vs vehicle
[3] = TAMs isolated from LLC tumors in vivo, vs vehicle

- IC50 (SYK): < 100 nM
- IC50 (BRD4-1): 1000 to 5000 nM
- IC50 (BRD4-2): 1000 to 5000 nM
SMILES: Cc1nn(-c2ccnc(Nc3ccc(-c4csc5c(=O)cc(N6CCOCC6)oc45)cc3)n2)cc1CN1CCC1 [Compound 3, 3-[p-(4-{4-[(1-Azetidinyl)methyl]-3-methyl-1H-pyrazol-1-yl}-2-pyrimidinylamino)phenyl]-5-morpholino-4-oxa-1-thia-7-indenone]
- in vitro viability of CT26 tumor cells (CT26 tumor cells): didn't show any effect; also recorded: no effect
- % Cell Viability (CT26 tumor cells; Log Inhibitor conc. 1.68867): 96.5 ± 5.3%
- % Cell Viability (CT26 tumor cells; Log Inhibitor conc. 1.9897): 96 ± 8.0%
- % Cell Viability (CT26 tumor cells; Log Inhibitor conc. 2.29073): 91.6 ± 8.9%
- % Cell Viability (CT26 tumor cells; Log Inhibitor conc. 2.59176): 91.3 ± 5.13%
- % Cell Viability (CT26 tumor cells; Log Inhibitor conc. 2.89279): 89.8 ± 6.7%
- % Cell Viability (CT26 tumor cells; Log Inhibitor conc. 3.19382): 87.3 ± 4.1%
- % Cell Viability (CT26 tumor cells; Log Inhibitor conc. 3.49485): 87.1 ± 9.6%
- % Cell Viability (CT26 tumor cells; Log Inhibitor conc. 3.79588): 84.3 ± 4.3%
- % Cell Viability (CT26 tumor cells; Log Inhibitor conc. 4.09691): 83.9 ± 6.27%
- % Cell Viability (CT26 tumor cells; Log Inhibitor conc. 4.39794): 83.6 ± 5.1%
- % Cell Viability (CT26 tumor cells; Log Inhibitor conc. 4.69897): 77.4 ± 5.0%
- expression of immune response genes in TAMs [1, 2]: activated the expression of immune response genes
- expression of macrophage M2 immunosuppressive genes in TAMs [1, 2]: suppressed the expression of macrophage M2 immunosuppressive genes
- Nos2 gene expression in macrophages sorted from LLC tumors ([1]; TAMs from LLC tumors in treated WT mice, normalized to GAPDH, vehicle 0.95 ± 0.06): 21 ± 0.19
- Vegf gene expression in macrophages sorted from LLC tumors ([1]; TAMs from LLC tumors in treated WT mice, normalized to GAPDH, vehicle 0.995 ± 0.06): 0.56 ± 0.05
- Il1 gene expression in macrophages sorted from LLC tumors ([1]; TAMs from LLC tumors in treated WT mice, normalized to GAPDH, vehicle 1.0 ± 0.04): 8.3 ± 1.43
- Ifng gene expression in macrophages sorted from LLC tumors ([1]; TAMs from LLC tumors in treated WT mice, normalized to GAPDH, vehicle 1 ± 0.3): 3.26 ± 1.04
- Il6 gene expression in macrophages sorted from LLC tumors ([1]; TAMs from LLC tumors in treated WT mice, normalized to GAPDH, vehicle 1.0 ± 0.3): 1.8 ± 0.16
- Tgfb gene expression in macrophages sorted from LLC tumors ([1]; TAMs from LLC tumors in treated WT mice, normalized to GAPDH, vehicle 1 ± 0.7): 0.35 ± 0.014
- Arg gene expression in macrophages sorted from LLC tumors ([1]; TAMs from LLC tumors in treated WT mice, normalized to GAPDH, vehicle 1 ± 0.9): 0.08 ± 0.004
- Arginase (Arg) suppression in TAMs [1, 3]: 98%
- IL1 gene expression in TAMs, augmentation [1, 3]: 8 fold
